From PMC10607100, “Anticancer and Antiphytopathogenic Activity of Fluorinated Isatins and Their Water-Soluble Hydrazone Derivatives” (International Journal of Molecular Sciences, 2023)
Read-outs that look alike come from different tables or passages of the source.

How the values were obtained:
Micrococcus luteus B-109 = experiment: Agar-well diffusion, bactericidal activity; type: cell-based; conditions: Micrococcus luteus
In short: (§1)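 Bacteria spread on agar (BP medium; GYCa for X. campestris; pH 7.2–7.4) with 6-mm wells, each receiving 150 μL compound solution. Cultures grown at 28 °C; growth-inhibition zone width measured after 36–40 h.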

[1] = test system: Pectobacterium atrosepticum 1043; experiment: Agar-well diffusion, bactericidal activity; type: cell-based; conditions: Pectobacterium atrosepticum, 1043; 2 mM/L; average of 3 experiments; read-out: width of the inhibition zone (mm), P. atrosepticum
In short: as §1

[2] = test system: Pseudomonas fluorescens EL-2.1; experiment: Agar-well diffusion, bactericidal activity; type: cell-based; conditions: Pseudomonas fluorescens, EL2.1, 2 mM/L
In short: as §1

[3] = test system: Pectobacterium carotovorum subsp. carotovorum MI; experiment: Agar-well diffusion, bactericidal activity; type: cell-based; conditions: Pectobacterium carotovorum, 2 mM/L
In short: as §1

[4] = test system: Fusarium oxysporum IBPPM 543; experiment: Mycelial radial growth inhibition; type: cell-based; conditions: for inhibition of growth at 1 µM: 1 nmol/mL; for inhibition of growth at 1 µM / inhibition of growth at 3 µM / inhibition of growth at 20 µM / inhibition of growth at 30 µM: read-out: Inhibition value, I (%); for inhibition of growth at 3 µM: 3 nmol/mL; for inhibition of growth at 20 µM: 20 nmol/mL; for inhibition of growth at 30 µM: 30 nmol/mL
In short: (§2)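 Compounds mixed into molten GPY agar at various concentrations; centre inoculated with a 5-mm mycelial plug from 10-day cultures and incubated at 27 °C. Colony diameter compared with untreated control until control plate was covered (usually 12 days); ≥4 replicates in two experiments.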

[5] = test system: Phytophthora cactorum VKM F-985; experiment: Mycelial radial growth inhibition; type: cell-based; conditions: for inhibition of growth at 1 µM: 1 nmol/mL; for inhibition of growth at 1 µM / inhibition of growth at 3 µM / inhibition of growth at 7 µM / inhibition of growth / inhibition of growth at 40 µM: read-out: Inhibition value, I (%); for inhibition of growth at 3 µM: 3 nmol/mL; for inhibition of growth at 7 µM: 7 nmol/mL; for inhibition of growth: 27 nmol/mL; for inhibition of growth at 40 µM: 40 nmol/mL
In short: as §2

[6] = test system: five representative phytopathogens; experiment: Agar-well diffusion, bactericidal activity over the panel of phytopathogens; type: cell-based; conditions: 36 h, 2 mM solutions; dependent on the test system used; read-out: inhibition zone width (mm), range over the test systems
In short: as §1

[7] = test system: Xanthomonas campestris B-610; experiment: Agar-well diffusion, bactericidal activity; type: cell-based; conditions: Xanthomonas campestris
In short: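 Agar-well diffusion on GYCa agar (pH 7.2–7.4) seeded with bacterial suspension; 150 μL compound solution placed in 6-mm wells. Inhibition zone width measured after 36–40 h incubation.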

[8] = Table S3, read-out: Inhibition zone width (mm), not less
[9] = Fusarium oxysporum, IBPPM543, 72 h, age of the fungus 3 days
[10] = Fusarium oxysporum, IBPPM543, 120 h, age of the fungus 5 days
[11] = Fusarium oxysporum, IBPPM543, 168 h, age of the fungus 7 days
[12] = Fusarium oxysporum, IBPPM543, 216 h, age of the fungus 9 days
[13] = Phytophthora cactorum, 72 h, age of the fungus 3 days
[14] = Phytophthora cactorum, 120 h, age of the fungus 5 days
[15] = Phytophthora cactorum, 168 h, age of the fungus 7 days
[16] = Phytophthora cactorum, 216 h, age of the fungus 9 days

**Q.** For `Cc1ccc2c(c1)C(=NNC(=O)C[n+]1ccccc1)C(=O)N2Cc1cccc(C(F)(F)F)c1.[Cl-]` [Compound 5e, 1-(2-(2-(5-Methyl-2-oxo-1-(3-(trifluoromethyl)benzyl)indolin-3-ylidene)hydrazinyl)-2-oxoethyl)pyridin-1-ium chloride], which zone of inhibition at 2000 µM (Micrococcus luteus B-109; B109, 2 mM/L, average of 3 experiments, read-out: width of the inhibition zone (mm), M. luteus) is on record?
**A.** 6 mm

**Q.** And the zone of inhibition at 2000 µM (Micrococcus luteus B-109; B109, Table S3, 2 mM/L, read-out: Inhibition zone width (mm), not less)?
**A.** ≥ 6 mm

**Q.** What about the zone of inhibition at 2000 µM [1] of the same molecule?
**A.** 4 mm

**Q.** What about the zone of inhibition at 2000 µM ([2]; average of 3 experiments, read-out: width of the inhibition zone (mm), Ps. fluorescens) of the same molecule?
**A.** 7 mm

**Q.** And the zone of inhibition at 2000 µM [2, 8]?
**A.** ≥ 7 mm

**Q.** What about the zone of inhibition at 2000 µM ([3]; average of 3 experiments, read-out: width of the inhibition zone (mm), P. carotovorum subsp. carotovorum) of the same molecule?
**A.** 5 mm

**Q.** And the zone of inhibition at 2000 µM [3, 8]?
**A.** ≥ 5 mm

**Q.** What about the inhibition of growth at 1 µM [4, 9] of the same molecule?
**A.** 33%

**Q.** What about the inhibition of growth at 3 µM [4, 9] of the same molecule?
**A.** 66%

**Q.** And the inhibition of growth at 20 µM [4, 9]?
**A.** 69%

**Q.** What about the inhibition of growth at 30 µM [4, 9] of the same molecule?
**A.** 75%

**Q.** And the EC50 ([4]; Fusarium oxysporum, IBPPM543, 120 h, day 5, read-out: EC50, µg/mL at Day 5, F. oxysporum)?
**A.** 0.6 µg/mL

**Q.** And the inhibition of growth at 1 µM [4, 10]?
**A.** 48%

**Q.** What about the inhibition of growth at 3 µM [4, 10] of the same molecule?
**A.** 67%

**Q.** And the inhibition of growth at 20 µM [4, 10]?
**A.** 72%

**Q.** What about the inhibition of growth at 30 µM [4, 10] of the same molecule?
**A.** 76%

**Q.** What about the inhibition of growth at 1 µM [4, 11] of the same molecule?
**A.** 33%

**Q.** What about the inhibition of growth at 3 µM [4, 11] of the same molecule?
**A.** 65%

**Q.** And the inhibition of growth at 20 µM [4, 11]?
**A.** 69%

**Q.** And the inhibition of growth at 30 µM [4, 11]?
**A.** 72%

**Q.** And the inhibition of growth at 1 µM [4, 12]?
**A.** 18%

**Q.** And the inhibition of growth at 3 µM [4, 12]?
**A.** 64%

**Q.** And the inhibition of growth at 20 µM [4, 12]?
**A.** 67%

**Q.** What about the inhibition of growth at 30 µM [4, 12] of the same molecule?
**A.** 71%

**Q.** And the IC50 ([4]; Fusarium oxysporum, IBPPM543, read-out: IC50, antifungal activity against F. oxysporum)?
**A.** 0.6 µg/mL

**Q.** What about the “fungicidal action stronger than N-cetylpyridinium chloride” value ([4]; same culture age (5 days)) of the same molecule?
**A.** 235 times

**Q.** And the “inhibition of Fusarium growth greater than fludioxonil” value ([4]; same culture age (5 days))?
**A.** 139 times

**Q.** What about the “antagonistic effect superior to that of N-cetylpyridinium chloride” value ([5]; 5 days of growth) of the same molecule?
**A.** 1.3 times

**Q.** And the “antagonistic effect superior to that of fludioxonil” value ([5]; 5 days of growth)?
**A.** 1.1 times

**Q.** What about the inhibition of growth at 1 µM [5, 13] of the same molecule?
**A.** 20%

**Q.** And the inhibition of growth at 3 µM [5, 13]?
**A.** 23%

**Q.** What about the inhibition of growth at 7 µM [5, 13] of the same molecule?
**A.** 25%

**Q.** What about the inhibition of growth [5, 13] of the same molecule?
**A.** 28%

**Q.** What about the inhibition of growth at 40 µM [5, 13] of the same molecule?
**A.** 35%

**Q.** And the EC50 ([5]; Phytophthora cactorum, 120 h, day 5, read-out: EC50, µg/mL at Day 5, P. cactorum)?
**A.** 27.4 µg/mL

**Q.** And the inhibition of growth at 1 µM [5, 14]?
**A.** 16%

**Q.** And the inhibition of growth at 3 µM [5, 14]?
**A.** 19%

**Q.** What about the inhibition of growth at 7 µM [5, 14] of the same molecule?
**A.** 30%

**Q.** And the inhibition of growth [5, 14]?
**A.** 35%

**Q.** And the inhibition of growth at 40 µM [5, 14]?
**A.** 38%

**Q.** And the inhibition of growth at 1 µM [5, 15]?
**A.** 15%

**Q.** And the inhibition of growth at 3 µM [5, 15]?
**A.** 17%

**Q.** And the inhibition of growth at 7 µM [5, 15]?
**A.** 23%

**Q.** And the inhibition of growth [5, 15]?
**A.** 26%

**Q.** And the inhibition of growth at 40 µM [5, 15]?
**A.** 29%

**Q.** And the inhibition of growth at 1 µM [5, 16]?
**A.** 14%

**Q.** What about the inhibition of growth at 3 µM [5, 16] of the same molecule?
**A.** 17%

**Q.** And the inhibition of growth at 7 µM [5, 16]?
**A.** 19%

**Q.** And the inhibition of growth [5, 16]?
**A.** 21%

**Q.** What about the inhibition of growth at 40 µM [5, 16] of the same molecule?
**A.** 26%

**Q.** What about the zone of inhibition at 2000 µM [6] of the same molecule?
**A.** 4 to 7 mm

**Q.** What about the zone of inhibition at 2000 µM ([7]; B610, 2 mM/L, average of 3 experiments, read-out: width of the inhibition zone (mm), X. campestris) of the same molecule?
**A.** 5 mm

**Q.** What about the zone of inhibition at 2000 µM ([7]; B610, Table S3, 2 mM/L, read-out: Inhibition zone width (mm), not less) of the same molecule?
**A.** ≥ 5 mm

**Q.** And the melting point?
**A.** 202 to 203 °C
